How the values were obtained:
Assay in all cases: scanMAX KINOMEscan (Eurofins)
Assay type in all cases: binding
GRK7 = GRK7 (Homo sapiens, UniProt Q8WTQ7); conditions: 1000 nM, read-out: Percent Control
From the text: (§1) Supplement cb5c00097_si_002.xlsx, sheet "Table S6 (Eurofins Selectivity)" | column: Percent Control

EPHB6 = EPHB6 (Homo sapiens, UniProt O15197); conditions: 1000 nM, read-out: Percent Control
From the text: as §1

EPHA6 = EPHA6 (Homo sapiens, UniProt Q9UF33); conditions: 1000 nM, read-out: Percent Control
From the text: as §1

BRSK2 = BRSK2 (Homo sapiens, UniProt Q8IWQ3); conditions: read-out: Percent Control
From the text: as §1

ZAK = ZAK (Homo sapiens, UniProt Q9NYL2); conditions: compound concentration 100 nM; Entrez ZAK; read-out: Percent Control
From the text: as §1

SNARK = SNARK (Homo sapiens, UniProt Q9H093); conditions: 1000 nM, read-out: Percent Control
From the text: as §1

PRKD2 = PRKD2 (Homo sapiens, UniProt Q9BZL6); conditions: 1000 nM, read-out: Percent Control
From the text: as §1

CDK9 = CDK9 (Homo sapiens, UniProt P50750); conditions: 1000 nM, read-out: Percent Control
From the text: as §1

SGK = SGK (Homo sapiens, UniProt O00141); conditions: compound concentration 100 nM; Entrez SGK1; read-out: Percent Control
From the text: as §1

ABL1-phosphorylated = ABL1-phosphorylated (Homo sapiens, UniProt P00519); conditions: read-out: Percent Control
From the text: as §1

FGFR3 = FGFR3 (Homo sapiens, UniProt P22607); conditions: read-out: Percent Control
From the text: as §1

CDKL3 = CDKL3 (Homo sapiens, UniProt Q8IVW4); conditions: read-out: Percent Control
From the text: as §1

TYRO3 = TYRO3 (Homo sapiens, UniProt Q06418); conditions: 1000 nM, read-out: Percent Control
From the text: as §1

CAMK4 = CAMK4 (Homo sapiens, UniProt Q16566); conditions: 1000 nM, read-out: Percent Control
From the text: as §1

BIKE = BIKE (Homo sapiens, UniProt Q9NSY1); conditions: 1000 nM, read-out: Percent Control
From the text: as §1

ROCK2 = ROCK2 (Homo sapiens, UniProt O75116); conditions: 1000 nM, read-out: Percent Control
From the text: as §1

GAK = GAK (Homo sapiens, UniProt O14976); conditions: read-out: Percent Control
From the text: as §1

NEK4 = NEK4 (Homo sapiens, UniProt P51957); conditions: compound concentration 100 nM; Entrez NEK4; read-out: Percent Control
From the text: as §1

PDGFRB = PDGFRB (Homo sapiens, UniProt P09619); conditions: 1000 nM, read-out: Percent Control
From the text: as §1

MEK6 = MEK6 (Homo sapiens, UniProt P52564); conditions: compound concentration 100 nM; Entrez MAP2K6; read-out: Percent Control
From the text: as §1

PIP5K2C = PIP5K2C (Homo sapiens, UniProt Q8TBX8); conditions: 1000 nM, read-out: Percent Control
From the text: as §1

CDK11 = CDK11 (Homo sapiens, UniProt Q9BWU1); conditions: read-out: Percent Control
From the text: as §1

GSK3B = GSK3B (Homo sapiens, UniProt P49841); conditions: read-out: Percent Control
From the text: as §1

MAST1 = MAST1 (Homo sapiens, UniProt Q9Y2H9); conditions: 1000 nM, read-out: Percent Control
From the text: as §1

PIK3C2B = PIK3C2B (Homo sapiens, UniProt O00750); conditions: compound concentration 100 nM; Entrez PIK3C2B; read-out: Percent Control
From the text: as §1

EPHA7 = EPHA7 (Homo sapiens, UniProt Q15375); conditions: read-out: Percent Control
From the text: as §1

NEK11 = NEK11 (Homo sapiens, UniProt Q8NG66); conditions: 1000 nM, read-out: Percent Control
From the text: as §1

[1] = molecular target: RSK2(Kin.Dom.2-C-terminal) (Homo sapiens, UniProt P51812); conditions: 1000 nM, read-out: Percent Control
From the text: as §1

[2] = molecular target: RSK2(Kin.Dom.1-N-terminal) (Homo sapiens, UniProt P51812); conditions: compound concentration 100 nM; Entrez RPS6KA3; read-out: Percent Control
From the text: as §1

MUSK = MUSK (Homo sapiens, UniProt O15146); conditions: 1000 nM, read-out: Percent Control
From the text: as §1

HASPIN = HASPIN (Homo sapiens, UniProt Q8TF76); conditions: 1000 nM, read-out: Percent Control
From the text: as §1

AXL = AXL (Homo sapiens, UniProt P30530); conditions: read-out: Percent Control
From the text: as §1

EPHB2 = EPHB2 (Homo sapiens, UniProt P29323); conditions: 1000 nM, read-out: Percent Control
From the text: as §1

CDKL1 = CDKL1 (Homo sapiens, UniProt Q00532); conditions: read-out: Percent Control
From the text: as §1

PRKG2 = PRKG2 (Homo sapiens, UniProt Q13237); conditions: 1000 nM, read-out: Percent Control
From the text: as §1

PAK6 = PAK6 (Homo sapiens, UniProt Q9NQU5); conditions: compound concentration 100 nM; Entrez PAK6; read-out: Percent Control
From the text: as §1

Sequence of GSK3B (P49841 whole entry): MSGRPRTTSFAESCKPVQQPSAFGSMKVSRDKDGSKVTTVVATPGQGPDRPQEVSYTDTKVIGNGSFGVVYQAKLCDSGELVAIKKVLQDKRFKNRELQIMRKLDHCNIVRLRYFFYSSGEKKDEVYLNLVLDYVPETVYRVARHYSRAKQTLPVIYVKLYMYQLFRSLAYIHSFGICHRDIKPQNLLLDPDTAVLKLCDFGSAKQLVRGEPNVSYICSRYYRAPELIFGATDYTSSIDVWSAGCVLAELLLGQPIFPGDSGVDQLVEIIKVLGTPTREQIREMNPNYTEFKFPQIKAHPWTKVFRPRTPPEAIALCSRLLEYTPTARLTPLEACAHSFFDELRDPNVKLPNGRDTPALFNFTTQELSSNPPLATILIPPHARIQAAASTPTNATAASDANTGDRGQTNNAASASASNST
Sequence of EPHA7 (Q15375 28-998): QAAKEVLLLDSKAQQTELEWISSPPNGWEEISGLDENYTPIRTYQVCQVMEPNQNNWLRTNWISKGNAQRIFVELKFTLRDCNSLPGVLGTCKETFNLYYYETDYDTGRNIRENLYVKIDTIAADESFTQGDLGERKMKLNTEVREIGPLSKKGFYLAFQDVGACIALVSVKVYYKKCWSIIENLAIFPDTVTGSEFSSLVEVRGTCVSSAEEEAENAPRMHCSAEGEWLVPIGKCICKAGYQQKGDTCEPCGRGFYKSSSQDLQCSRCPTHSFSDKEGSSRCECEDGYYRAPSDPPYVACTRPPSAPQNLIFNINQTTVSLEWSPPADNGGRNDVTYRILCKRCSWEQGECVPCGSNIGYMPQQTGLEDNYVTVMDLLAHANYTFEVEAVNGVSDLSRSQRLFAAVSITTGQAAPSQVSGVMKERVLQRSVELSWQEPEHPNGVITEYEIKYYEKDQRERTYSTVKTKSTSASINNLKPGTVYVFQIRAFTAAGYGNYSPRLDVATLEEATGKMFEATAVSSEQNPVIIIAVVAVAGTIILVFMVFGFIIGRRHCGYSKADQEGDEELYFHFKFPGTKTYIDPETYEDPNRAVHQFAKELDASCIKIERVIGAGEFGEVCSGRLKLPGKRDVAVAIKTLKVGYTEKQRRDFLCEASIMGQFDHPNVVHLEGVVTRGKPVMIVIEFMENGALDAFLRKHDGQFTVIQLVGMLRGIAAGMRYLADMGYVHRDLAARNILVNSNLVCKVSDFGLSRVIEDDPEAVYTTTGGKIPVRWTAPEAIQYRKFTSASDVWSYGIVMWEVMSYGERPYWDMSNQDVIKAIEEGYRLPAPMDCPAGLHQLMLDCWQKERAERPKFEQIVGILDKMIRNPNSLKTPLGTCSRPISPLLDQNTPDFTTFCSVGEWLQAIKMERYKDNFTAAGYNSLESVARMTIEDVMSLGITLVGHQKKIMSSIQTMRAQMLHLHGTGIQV
Sequence of AXL (P30530 26-894): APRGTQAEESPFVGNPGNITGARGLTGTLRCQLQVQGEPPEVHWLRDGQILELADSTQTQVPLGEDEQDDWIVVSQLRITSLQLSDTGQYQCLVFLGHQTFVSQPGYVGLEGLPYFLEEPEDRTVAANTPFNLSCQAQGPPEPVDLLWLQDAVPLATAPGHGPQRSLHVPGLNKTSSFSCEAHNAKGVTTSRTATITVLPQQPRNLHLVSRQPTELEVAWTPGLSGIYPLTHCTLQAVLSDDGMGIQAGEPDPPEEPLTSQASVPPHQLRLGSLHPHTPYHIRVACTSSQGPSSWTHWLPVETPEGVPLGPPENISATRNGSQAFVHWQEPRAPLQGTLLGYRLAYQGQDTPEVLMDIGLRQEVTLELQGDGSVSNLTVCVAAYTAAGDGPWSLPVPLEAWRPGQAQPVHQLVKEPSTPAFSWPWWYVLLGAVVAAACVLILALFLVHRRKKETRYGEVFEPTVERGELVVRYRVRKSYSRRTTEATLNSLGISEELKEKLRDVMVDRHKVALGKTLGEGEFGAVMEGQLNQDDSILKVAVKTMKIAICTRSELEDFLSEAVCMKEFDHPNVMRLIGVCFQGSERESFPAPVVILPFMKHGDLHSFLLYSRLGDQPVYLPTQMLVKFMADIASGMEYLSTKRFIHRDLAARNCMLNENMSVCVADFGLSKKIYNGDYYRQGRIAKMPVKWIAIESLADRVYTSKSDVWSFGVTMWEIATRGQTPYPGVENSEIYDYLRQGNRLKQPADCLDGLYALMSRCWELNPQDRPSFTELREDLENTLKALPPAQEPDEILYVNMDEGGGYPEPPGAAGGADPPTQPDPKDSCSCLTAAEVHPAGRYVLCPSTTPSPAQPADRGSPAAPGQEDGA
Sequence of FGFR3 (P22607 23-806): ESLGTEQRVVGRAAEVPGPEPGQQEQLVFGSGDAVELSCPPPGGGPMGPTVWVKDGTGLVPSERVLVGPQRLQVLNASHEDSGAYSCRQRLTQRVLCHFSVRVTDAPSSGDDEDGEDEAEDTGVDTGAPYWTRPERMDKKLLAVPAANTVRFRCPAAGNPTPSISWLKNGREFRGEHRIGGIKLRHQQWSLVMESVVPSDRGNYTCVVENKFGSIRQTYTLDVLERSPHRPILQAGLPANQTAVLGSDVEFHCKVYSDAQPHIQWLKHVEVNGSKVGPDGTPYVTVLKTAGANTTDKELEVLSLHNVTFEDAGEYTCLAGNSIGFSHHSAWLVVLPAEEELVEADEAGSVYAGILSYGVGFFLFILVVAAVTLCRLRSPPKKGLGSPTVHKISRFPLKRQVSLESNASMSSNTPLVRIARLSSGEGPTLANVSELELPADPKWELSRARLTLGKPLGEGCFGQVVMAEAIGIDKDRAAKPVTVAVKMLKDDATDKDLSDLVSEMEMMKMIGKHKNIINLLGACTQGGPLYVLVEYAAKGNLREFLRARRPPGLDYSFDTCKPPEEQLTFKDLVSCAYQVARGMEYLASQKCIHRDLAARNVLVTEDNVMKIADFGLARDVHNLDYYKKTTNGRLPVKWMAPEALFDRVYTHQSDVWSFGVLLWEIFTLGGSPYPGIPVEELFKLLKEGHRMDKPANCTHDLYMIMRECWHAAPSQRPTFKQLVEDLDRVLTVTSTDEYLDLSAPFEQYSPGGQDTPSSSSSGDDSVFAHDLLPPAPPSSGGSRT
Sequence of CDKL3 (Q8IVW4 whole entry): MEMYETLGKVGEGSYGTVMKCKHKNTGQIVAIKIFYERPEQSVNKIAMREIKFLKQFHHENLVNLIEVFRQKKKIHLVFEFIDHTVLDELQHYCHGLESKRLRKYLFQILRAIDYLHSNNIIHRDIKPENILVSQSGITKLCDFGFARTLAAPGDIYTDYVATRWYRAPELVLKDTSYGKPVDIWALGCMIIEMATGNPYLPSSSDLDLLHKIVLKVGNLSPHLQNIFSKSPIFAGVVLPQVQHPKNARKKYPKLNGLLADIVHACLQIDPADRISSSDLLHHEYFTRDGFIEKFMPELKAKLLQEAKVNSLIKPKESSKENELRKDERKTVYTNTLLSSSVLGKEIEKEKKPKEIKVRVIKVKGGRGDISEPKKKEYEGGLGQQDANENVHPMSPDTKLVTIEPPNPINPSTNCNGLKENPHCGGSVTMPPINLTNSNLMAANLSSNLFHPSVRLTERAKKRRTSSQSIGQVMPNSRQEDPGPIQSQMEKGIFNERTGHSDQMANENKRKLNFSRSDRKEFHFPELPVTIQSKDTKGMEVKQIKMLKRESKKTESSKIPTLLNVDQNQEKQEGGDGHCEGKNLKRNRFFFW
Sequence of ABL1-phosphorylated (P00519 whole entry): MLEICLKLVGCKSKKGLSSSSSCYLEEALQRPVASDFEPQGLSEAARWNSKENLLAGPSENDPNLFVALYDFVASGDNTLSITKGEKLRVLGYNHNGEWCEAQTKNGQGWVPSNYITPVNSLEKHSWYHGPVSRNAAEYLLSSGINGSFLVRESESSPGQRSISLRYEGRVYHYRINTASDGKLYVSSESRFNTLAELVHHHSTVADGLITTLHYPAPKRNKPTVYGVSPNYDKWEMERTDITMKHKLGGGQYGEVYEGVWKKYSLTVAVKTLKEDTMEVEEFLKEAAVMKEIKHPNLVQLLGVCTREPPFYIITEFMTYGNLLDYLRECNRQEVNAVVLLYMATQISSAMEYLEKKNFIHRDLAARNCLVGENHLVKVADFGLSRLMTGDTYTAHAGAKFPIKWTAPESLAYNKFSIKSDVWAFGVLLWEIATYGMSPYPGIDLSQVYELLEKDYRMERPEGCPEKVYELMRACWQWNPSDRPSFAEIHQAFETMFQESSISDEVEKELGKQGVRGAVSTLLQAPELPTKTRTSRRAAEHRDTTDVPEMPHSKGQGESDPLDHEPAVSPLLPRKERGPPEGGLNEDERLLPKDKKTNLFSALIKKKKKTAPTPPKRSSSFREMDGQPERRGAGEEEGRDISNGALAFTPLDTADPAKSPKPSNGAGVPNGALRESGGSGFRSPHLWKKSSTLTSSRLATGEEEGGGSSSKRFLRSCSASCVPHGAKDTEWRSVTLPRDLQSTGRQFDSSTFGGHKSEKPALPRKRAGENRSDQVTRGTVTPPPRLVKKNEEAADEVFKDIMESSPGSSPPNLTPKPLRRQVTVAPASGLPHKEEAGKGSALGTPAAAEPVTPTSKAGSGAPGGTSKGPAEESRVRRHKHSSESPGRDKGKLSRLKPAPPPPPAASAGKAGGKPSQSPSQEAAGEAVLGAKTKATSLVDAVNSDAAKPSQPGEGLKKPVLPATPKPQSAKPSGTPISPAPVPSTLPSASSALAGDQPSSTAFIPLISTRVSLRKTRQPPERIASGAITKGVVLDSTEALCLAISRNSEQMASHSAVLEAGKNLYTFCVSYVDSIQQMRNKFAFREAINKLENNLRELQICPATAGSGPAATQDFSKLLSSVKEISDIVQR

CN1C(=O)[C@@H](N2CCc3c(nn(Cc4ccccc4)c3C(N)=O)C2=O)COc2cc(Cl)ccc21 [Compound 10, (S)-2-benzyl-6-(8-chloro-5-methyl-4-oxo-2,3,4,5-tetrahydrobenzo[b][1,4]oxazepin-3-yl)-7-oxo-4,5,6,7-tetrahydro-2H-pyrazolo[3,4-c]pyridine-3-carboxamide]
remaining binding at 1 µM (GRK7): 98% | remaining binding at 1 µM (EPHB6): 94% | remaining binding at 1 µM (EPHA6): 86% | remaining binding at 1 µM (BRSK2; 1000 nM): 100% | remaining binding at 0.1 µM (BRSK2; compound concentration 100 nM, Entrez BRSK2): 85% | remaining binding at 0.1 µM (ZAK): 89% | remaining binding at 1 µM (SNARK): 92% | remaining binding at 1 µM (PRKD2): 96% | remaining binding at 1 µM (CDK9): 85% | remaining binding at 0.1 µM (SGK): 98% | remaining binding at 1 µM (ABL1-phosphorylated; 1000 nM): 100% | remaining binding at 0.1 µM (ABL1-phosphorylated; compound concentration 100 nM, Entrez ABL1): 97% | remaining binding at 1 µM (FGFR3; 1000 nM): 100% | remaining binding at 0.1 µM (FGFR3; compound concentration 100 nM, Entrez FGFR3): 100% | remaining binding at 1 µM (CDKL3; 1000 nM): 100% | remaining binding at 0.1 µM (CDKL3; compound concentration 100 nM, Entrez CDKL3): 91% | remaining binding at 1 µM (TYRO3): 97% | remaining binding at 1 µM (CAMK4): 95% | remaining binding at 1 µM (BIKE): 82% | remaining binding at 1 µM (ROCK2): 74% | remaining binding at 1 µM (GAK; 1000 nM): 100% | remaining binding at 0.1 µM (GAK; compound concentration 100 nM, Entrez GAK): 87% | remaining binding at 0.1 µM (NEK4): 91% | remaining binding at 1 µM (PDGFRB): 87% | remaining binding at 0.1 µM (MEK6): 88% | remaining binding at 1 µM (PIP5K2C): 92% | remaining binding at 1 µM (CDK11; 1000 nM): 100% | remaining binding at 0.1 µM (CDK11; compound concentration 100 nM, Entrez CDK19): 100% | remaining binding at 1 µM (GSK3B; 1000 nM): 100% | remaining binding at 0.1 µM (GSK3B; compound concentration 100 nM, Entrez GSK3B): 100% | remaining binding at 1 µM (MAST1): 75% | remaining binding at 0.1 µM (PIK3C2B): 86% | remaining binding at 1 µM (EPHA7; 1000 nM): 100% | remaining binding at 0.1 µM (EPHA7; compound concentration 100 nM, Entrez EPHA7): 91% | remaining binding at 1 µM (NEK11): 78% | remaining binding at 1 µM [1]: 88% | remaining binding at 0.1 µM [2]: 100% | remaining binding at 1 µM (MUSK): 92% | remaining binding at 1 µM (HASPIN): 96% | remaining binding at 1 µM (AXL; 1000 nM): 100% | remaining binding at 0.1 µM (AXL; compound concentration 100 nM, Entrez AXL): 95% | remaining binding at 1 µM (EPHB2): 81% | remaining binding at 1 µM (CDKL1; 1000 nM): 99% | remaining binding at 0.1 µM (CDKL1; compound concentration 100 nM, Entrez CDKL1): 96% | remaining binding at 1 µM (PRKG2): 90% | remaining binding at 0.1 µM (PAK6): 93%
